Test results from paper PMC4786417, “Ternatin and improved synthetic variants kill cancer cells by targeting the elongation factor-1A ternary complex” (eLife, 2015).

Assays:
[1] = system: 50-kDa protein (eEF1A) in HEK293T cell lysates; test: Photo-affinity labeling of cell lysates with probe 5; assay type: binding; settings: competitor 10 min before 5 (2 μM) 20 min, UV, TAMRA-azide click
Experimental: Lysates were prepared from HEK293T cells by washing a monolayer of cells once with ice-cold PBS and briefly freezing at –80°C. Lysis buffer (25 mM HEPES-KOH pH 7.3, 100 mM KOAc, 5 mM MgOAc2, 1 mM TCEP, 1 mM PMSF, Roche EDTA-free complete protease inhibitor) was added, and cells were detached with a cell scraper. Crude lysates were clarified by centrifugation (15 min at 14,000 rpm), protein was quantified by Bradford assay, and the protein concentration was brought to 1.5 mg/mL with lysis buffer. Lysates were processed for photo-labeling as described below. For samples treated with RNase A, RNase A (Roche) was added to lysates (10 mg/mL final concentration) and incubated for 20 min at RT.
Photo-labeling experiments were preformed essentially as described ([MacKinnon and Taunton, 2009]; [MacKinnon et al., 2007]). Reactions (100 μL) were treated with DMSO (1 μL) or competitor in DMSO as 100X stocks and incubated for 10 min at RT, then treated with photo-probe 5 and incubated for 20 min. Reactions were transferred to 96-well plates and irradiated with long-wave UV light (λmax = 355 nm, 1000 W, 90 s). […] Gels were scanned for TAMRA fluorescence (532 nm excitation laser, 568 nm emission measured with LPG filter) on a Typhoon FLA 9000 scanner (GE Life Sciences).

[2] = system: translation initiation/elongation in HeLa cells; test: Ribosome/polysome profiles; assay type: cell-based; settings: 4 (5 μM) or cycloheximide (100 μg/mL) 15 min, then harringtonine 2 μg/mL 20 min
Experimental: HeLa cells grown to 80% confluence in 10-cm dishes were treated with DMSO or 4 (5 μM) for 20 min (Figure 2c, left panel), or were first treated with DMSO, 4 (5 μM), or cycloheximide (CHX, 100 μg/mL, Sigma, St. Louis, MO) for 15 min, followed by harringtonine (2 μg/mL, LKT Laboratories, St. Paul, MN) for 20 min. Following treatment, dishes were placed on ice, media aspirated, and cells were washed once with ice-cold PBS. Cells were scraped into 400 μL lysis buffer (20 mM Tris-HCl pH 7.5, 150 mM NaCl, 5 mM MgCl2, 1 mM DTT, 1% Triton X-100, 100 μg/mL CHX). Lysates were incubated for 10 min on ice, then passed through a 26-G needle 5 times. Samples were clarified by centrifugation at 14,000 rpm for 10 min at 4°C. Lysates were applied to 10–50% sucrose gradients (prepared in 20 mM Tris-HCl pH 7.5, 150 mM NaCl, 5 mM MgCl2, 1 mM DTT, 100 μg/mL CHX), followed by centrifugation at 35,000 rpm for 3 hr in a SW41 rotor at 4°C. Ribosome/polysome profiles were obtained by flowing the gradient top to bottom through an in-line spectrometer (254 nm, EM-1 Econo UV Monitor, BioRad, Hercules, CA).

[3] = system: global protein synthesis in HCT116 cells; test: 35S-methionine incorporation; assay type: cell-based; settings: 5 hr compound then 35S-Met 1 hr, autoradiography / scintillation counting after TCA precipitation (mean ± SEM, n = 3)
Experimental: HCT116 cells at 80% confluence in 12-well plates were incubated with compounds for 5 hr at 37°C. The cell culture media was replaced with methionine- and cysteine-free DMEM with the appropriate amount of compound. ^35S-methionine (PerkinElmer EasyTag, 40 μCi/well) was added and cells were incubated for 1 hr. Subsequently, media was aspirated and cells were washed twice with ice-cold phosphate-buffered saline (PBS). For samples analyzed by SDS-PAGE/autoradiography (Figure 2a), cells were lysed in buffer (PBS, 0.5% Triton X-100, Roche complete protease inhibitor cocktail, Roche, Indianapolis, IN) and protein content was normalized by Bradford assay. Dried gels were exposed to a storage phosphor screen (Amersham Biosciences, UK) overnight and scanned with a Typhoon imager (GE Life Sciences, Pittsburgh, PA). Bulk incorporation measurements (Figure 2b) were made by treating cells with cold 10% trichloroacetic acid (TCA, 0.5 mL) for 10 min. Precipitated monolayers were washed with 10% TCA (2 × 0.5 mL) and solubilized in 0.2 N NaOH (0.5 mL). Aliquots (100 μL) were diluted into liquid scintillation fluid and radioactivity was quantified by scintillation counting.

[4] = system: adipogenesis; settings: ref Shimokawa et al., 2008b; cited from earlier work
Experimental: Ternatin (1, Figure 1a) is an N-methylated cyclic heptapeptide that inhibits adipogenesis at low nanomolar concentrations (EC50 20 nM) and becomes cytotoxic at ten-fold higher concentrations ([Shimokawa et al., 2008a]). […] Motivating the current study, ternatin's molecular target and mechanism of action were completely unknown. While searching for cyclic peptides that, like ternatin, incorporate a β-hydroxy leucine, we found a paten ...

[5] = system: HCT116 cells; test: HCT116 cell proliferation assay (alamarBlue, 72 hr); assay type: cell-based; settings: read-out: effect on HCT116 cell proliferation (no effect up to)
Experimental: HCT116 cells (ATCC, Manassas, VA) were maintained in McCoy’s 5A media (Gibco, Grand Island, NY) supplemented with 10% fetal bovine serum (Axenia Biologix, Dixon, CA), 100 units/mL penicillin, and 100 ug/mL streptomycin (Gibco). Mutant HCT116 cells were obtained from Dominic Hoepfner ([Krastel et al., 2015]). HEK293T cells (ATCC) and HeLa cells (ATCC) were maintained in DMEM (Gibco) supplemented with 10% fetal bovine serum, 100 units/mL penicillin, and 100 μg/mL streptomycin. All other cell lines were obtained from the Cancer Cell Line Encyclopedia collection and were maintained as described ([Barretina et al., 2012]). All cell lines were tested for mycoplasma (Lonza, CH) before use and were SNP-typed to verify that their identity matched that of the originally procured sample. […]
Growing cells were briefly trypsinized and repeatedly pipetted to produce a homogenous cell suspension. […] Fluorescence intensity was measured hourly to determine the linear range for each assay (Ex 545 nm, Em 590 nm, Spectra Max M5, Molecular Devices, Sunnyvale, CA). Proliferation curves were generated by first normalizing fluorescence intensity in each well to the DMSO-treated plate average. Normalized fluorescence intensity was plotted in GraphPad Prism (GraphPad, La Jolla, CA), and IC50 values calculated from nonlinear regression curves. […]

## CO[C@H]1\C=C/C=C\C=C/C[C@H](OC(=O)[C@@H](C)NC(=O)C2CCCCC2)[C@H](C)[C@@H](O)/C(C)=C\CCc2cc(O)cc(c2O)NC(=O)C1 [ansatrienin B]
[1]
  competition of labeling of the 50-kDa band by probe 5: abolished

## C[C@@H]1C[C@@H]([C@H](O)CC2CC(=O)NC(=O)C2)C(=O)[C@@H](C)C1 [cycloheximide]
[2]
  harringtonine-induced polysome depletion: completely blocked

## didemnin B
[1]
  competition of labeling of the 50-kDa band by probe 5: abolished

## ternatin-4-Ala [Compound 2]
[3]
  effect on global protein synthesis (35S-methionine labeling): no effect
[4]
  biological activity (adipogenesis assay): abolished biological activity
[5]
  IC50: > 10 µM
